Reference: ChEMBL document CHEMBL5303573, “Mapping human microbiome drug metabolism by gut bacteria and their genes” (Nature, 2019)

Experiments:
[1] = The drug is tested on Bifidobacterium breve strain: DSM20213 for biotransformation. The drug concentrations were measured before and after a 12-h incubation by liquid-chromatography-coupled mass spectrometry (LC–MS); details: 2 µM
[2] = The drug is tested on Bacteroides coprophilus strain: DSM18228 for biotransformation. The drug concentrations were measured before and after a 12-h incubation by liquid-chromatography-coupled mass spectrometry (LC–MS); details: 2 µM
[3] = The drug is tested on Bacteroides dorei strain: DSM17855 for biotransformation. The drug concentrations were measured before and after a 12-h incubation by liquid-chromatography-coupled mass spectrometry (LC–MS); details: phocaeicola dorei, 2 µM
[4] = The drug is tested on Bacteroides fragilis strain: HMW615 for biotransformation. The drug concentrations were measured before and after a 12-h incubation by liquid-chromatography-coupled mass spectrometry (LC–MS); details: 2 µM
[5] = The drug is tested on Bacteroides uniformis strain: ATCC8492 for biotransformation. The drug concentrations were measured before and after a 12-h incubation by liquid-chromatography-coupled mass spectrometry (LC–MS); details: 2 µM
[6] = The drug is tested on Bacteroides sp. WH2 strain: WH2 for biotransformation. The drug concentrations were measured before and after a 12-h incubation by liquid-chromatography-coupled mass spectrometry (LC–MS); details: bacteroides sp. wh2, 12 h, 2 µM
[7] = The drug is tested on Odoribacter splanchnicus strain: fecal isolate for biotransformation. The drug concentrations were measured before and after a 12-h incubation by liquid-chromatography-coupled mass spectrometry (LC–MS); details: 2 µM
[8] = The drug is tested on Anaerococcus hydrogenalis strain: DSM7454 for biotransformation. The drug concentrations were measured before and after a 12-h incubation by liquid-chromatography-coupled mass spectrometry (LC–MS); details: 2 µM
[9] = The drug is tested on Clostridium symbiosum strain: ATCC14940 for biotransformation. The drug concentrations were measured before and after a 12-h incubation by liquid-chromatography-coupled mass spectrometry (LC–MS); details: 2 µM
[10] = The drug is tested on Enterococcus faecalis strain: V583 for biotransformation. The drug concentrations were measured before and after a 12-h incubation by liquid-chromatography-coupled mass spectrometry (LC–MS); details: 2 µM
[11] = The drug is tested on Eubacterium hallii strain: DSM3353 for biotransformation. The drug concentrations were measured before and after a 12-h incubation by liquid-chromatography-coupled mass spectrometry (LC–MS); details: anaerobutyricum hallii, 2 µM
[12] = The drug is tested on Eubacterium rectale strain: ATCC33656 for biotransformation. The drug concentrations were measured before and after a 12-h incubation by liquid-chromatography-coupled mass spectrometry (LC–MS); details: agathobacter rectalis, 2 µM
[13] = The drug is tested on Edwardsiella tarda strain: ATCC23685 for biotransformation. The drug concentrations were measured before and after a 12-h incubation by liquid-chromatography-coupled mass spectrometry (LC–MS); details: 2 µM
[14] = The drug is tested on Enterobacter cancerogenus strain: ATCC35316 for biotransformation. The drug concentrations were measured before and after a 12-h incubation by liquid-chromatography-coupled mass spectrometry (LC–MS); details: 2 µM
[15] = bacteroides eggerthii, 12 h, 2 µM
Description: The drug is tested on Bacteroides eggerthii strain: DSM20697 for biotransformation. The drug concentrations were measured before and after a 12-h incubation by liquid-chromatography-coupled mass spectrometry (LC–MS)

[16] = bacteroides fragilis, 12 h, 2 µM
Description: The drug is tested on Bacteroides fragilis strain: NCTC 9343 for biotransformation. The drug concentrations were measured before and after a 12-h incubation by liquid-chromatography-coupled mass spectrometry (LC–MS)

[17] = parabacteroides distasonis, 12 h, 2 µM
Description: The drug is tested on Parabacteroides distasonis strain: ATCC8503 for biotransformation. The drug concentrations were measured before and after a 12-h incubation by liquid-chromatography-coupled mass spectrometry (LC–MS)

[18] = limosilactobacillus reuteri cf48-3a, 12 h, 2 µM
Description: The drug is tested on Lactobacillus reuteri CF48-3A strain: BEI HM-102 for biotransformation. The drug concentrations were measured before and after a 12-h incubation by liquid-chromatography-coupled mass spectrometry (LC–MS)

[19] = The drug is tested on Escherichia coli strain: BW25113 for biotransformation. The drug concentrations were measured before and after a 12-h incubation by liquid-chromatography-coupled mass spectrometry (LC–MS); details: 2 µM

SMILES: Nc1nc2ccc(OC(F)(F)F)cc2s1 [RILUZOLE]
- Bacterial Biotransformation [1]: Compound NOT metabolized
- Bacterial Biotransformation [2]: Compound NOT metabolized
- Bacterial Biotransformation [3]: Compound metabolized
- Bacterial Biotransformation [4]: Compound metabolized
- Bacterial Biotransformation [5]: Compound metabolized
- Bacterial Biotransformation [6]: Compound NOT metabolized
- Bacterial Biotransformation [7]: Compound NOT metabolized
- Bacterial Biotransformation [8]: Compound NOT metabolized
- Bacterial Biotransformation [9]: Compound NOT metabolized
- Bacterial Biotransformation [10]: Compound NOT metabolized
- Bacterial Biotransformation [11]: Compound NOT metabolized
- Bacterial Biotransformation [12]: Compound NOT metabolized
- Bacterial Biotransformation [13]: Compound NOT metabolized
- Bacterial Biotransformation [14]: Compound NOT metabolized
- Bacterial Biotransformation [15]: Compound metabolized
- Bacterial Biotransformation [16]: Compound NOT metabolized
- Bacterial Biotransformation [17]: Compound metabolized
- Bacterial Biotransformation [18]: Compound NOT metabolized

SMILES: CC(N)C12CC3CC(CC(C3)C1)C2 (stereo unspecified) [RIMANTADINE]
- Bacterial Biotransformation [1]: Compound NOT metabolized
- Bacterial Biotransformation [2]: Compound NOT metabolized
- Bacterial Biotransformation [4]: Compound NOT metabolized
- Bacterial Biotransformation [5]: Compound NOT metabolized
- Bacterial Biotransformation [6]: Compound NOT metabolized
- Bacterial Biotransformation [7]: Compound NOT metabolized
- Bacterial Biotransformation [8]: Compound NOT metabolized
- Bacterial Biotransformation [9]: Compound NOT metabolized
- Bacterial Biotransformation [10]: Compound NOT metabolized
- Bacterial Biotransformation [11]: Compound NOT metabolized
- Bacterial Biotransformation [12]: Compound NOT metabolized
- Bacterial Biotransformation [13]: Compound NOT metabolized
- Bacterial Biotransformation [14]: Compound NOT metabolized
- Bacterial Biotransformation [15]: Compound NOT metabolized
- Bacterial Biotransformation [16]: Compound NOT metabolized
- Bacterial Biotransformation [17]: Compound NOT metabolized
- Bacterial Biotransformation [18]: Compound NOT metabolized

SMILES: CC1=C(CC(=O)O)c2cc(F)ccc2/C1=C\c1ccc([S+](C)[O-])cc1 (stereo unspecified)
- Bacterial Biotransformation [1]: Compound NOT metabolized
- Bacterial Biotransformation [2]: Compound NOT metabolized
- Bacterial Biotransformation [3]: Compound NOT metabolized
- Bacterial Biotransformation [4]: Compound NOT metabolized
- Bacterial Biotransformation [5]: Compound NOT metabolized
- Bacterial Biotransformation [6]: Compound NOT metabolized
- Bacterial Biotransformation [7]: Compound NOT metabolized
- Bacterial Biotransformation [8]: Compound NOT metabolized
- Bacterial Biotransformation [9]: Compound NOT metabolized
- Bacterial Biotransformation [10]: Compound NOT metabolized
- Bacterial Biotransformation [11]: Compound NOT metabolized
- Bacterial Biotransformation [13]: Compound NOT metabolized
- Bacterial Biotransformation [14]: Compound NOT metabolized
- Bacterial Biotransformation [19]: Compound NOT metabolized
- Bacterial Biotransformation [15]: Compound NOT metabolized
- Bacterial Biotransformation [16]: Compound NOT metabolized
- Bacterial Biotransformation [17]: Compound NOT metabolized
- Bacterial Biotransformation [18]: Compound NOT metabolized

SMILES: Cc1ccc(S(=O)(=O)NC(=O)NN2CCCCCC2)cc1 [TOLAZAMIDE]
- Bacterial Biotransformation [1]: Compound NOT metabolized
- Bacterial Biotransformation [2]: Compound metabolized
- Bacterial Biotransformation [3]: Compound metabolized
- Bacterial Biotransformation [4]: Compound metabolized
- Bacterial Biotransformation [5]: Compound metabolized
- Bacterial Biotransformation [6]: Compound NOT metabolized
- Bacterial Biotransformation [7]: Compound metabolized
- Bacterial Biotransformation [8]: Compound NOT metabolized
- Bacterial Biotransformation [9]: Compound NOT metabolized
- Bacterial Biotransformation [10]: Compound NOT metabolized
- Bacterial Biotransformation [11]: Compound metabolized
- Bacterial Biotransformation [13]: Compound NOT metabolized
- Bacterial Biotransformation [14]: Compound NOT metabolized
- Bacterial Biotransformation [19]: Compound NOT metabolized
- Bacterial Biotransformation [15]: Compound metabolized
- Bacterial Biotransformation [16]: Compound metabolized
- Bacterial Biotransformation [17]: Compound metabolized

SMILES: CCN1CCCC1CNC(=O)c1cc(S(N)(=O)=O)ccc1OC (stereo unspecified) [SULPIRIDE]
- Bacterial Biotransformation [1]: Compound NOT metabolized
- Bacterial Biotransformation [3]: Compound NOT metabolized
- Bacterial Biotransformation [5]: Compound NOT metabolized
- Bacterial Biotransformation [6]: Compound NOT metabolized
- Bacterial Biotransformation [8]: Compound NOT metabolized
- Bacterial Biotransformation [9]: Compound NOT metabolized
- Bacterial Biotransformation [10]: Compound NOT metabolized
- Bacterial Biotransformation [11]: Compound NOT metabolized
- Bacterial Biotransformation [12]: Compound NOT metabolized
- Bacterial Biotransformation [13]: Compound NOT metabolized
- Bacterial Biotransformation [14]: Compound NOT metabolized
- Bacterial Biotransformation [19]: Compound NOT metabolized
- Bacterial Biotransformation [15]: Compound NOT metabolized
- Bacterial Biotransformation [16]: Compound NOT metabolized
- Bacterial Biotransformation [18]: Compound NOT metabolized

SMILES: COc1cc2nc(N3CCN(C(=O)c4ccco4)CC3)nc(N)c2cc1OC [PRAZOSIN]
- Bacterial Biotransformation [1]: Compound NOT metabolized
- Bacterial Biotransformation [2]: Compound NOT metabolized
- Bacterial Biotransformation [4]: Compound NOT metabolized
- Bacterial Biotransformation [5]: Compound NOT metabolized
- Bacterial Biotransformation [6]: Compound NOT metabolized
- Bacterial Biotransformation [7]: Compound NOT metabolized
- Bacterial Biotransformation [8]: Compound NOT metabolized
- Bacterial Biotransformation [10]: Compound NOT metabolized
- Bacterial Biotransformation [11]: Compound NOT metabolized
- Bacterial Biotransformation [12]: Compound NOT metabolized
- Bacterial Biotransformation [13]: Compound NOT metabolized
- Bacterial Biotransformation [14]: Compound NOT metabolized
- Bacterial Biotransformation [15]: Compound NOT metabolized
- Bacterial Biotransformation [17]: Compound NOT metabolized
- Bacterial Biotransformation [18]: Compound NOT metabolized

SMILES: CCCCc1nc(Cl)c(CO)n1Cc1ccc(-c2ccccc2-c2nn[nH]n2)cc1 [LOSARTAN]
- Bacterial Biotransformation [2]: Compound NOT metabolized
- Bacterial Biotransformation [3]: Compound metabolized
- Bacterial Biotransformation [4]: Compound metabolized
- Bacterial Biotransformation [5]: Compound metabolized
- Bacterial Biotransformation [6]: Compound NOT metabolized
- Bacterial Biotransformation [7]: Compound metabolized
- Bacterial Biotransformation [8]: Compound NOT metabolized
- Bacterial Biotransformation [9]: Compound NOT metabolized
- Bacterial Biotransformation [10]: Compound NOT metabolized
- Bacterial Biotransformation [11]: Compound NOT metabolized
- Bacterial Biotransformation [12]: Compound NOT metabolized
- Bacterial Biotransformation [13]: Compound metabolized
- Bacterial Biotransformation [14]: Compound NOT metabolized
- Bacterial Biotransformation [16]: Compound metabolized
- Bacterial Biotransformation [17]: Compound metabolized
- Bacterial Biotransformation [18]: Compound NOT metabolized
